Data: PubChem BioAssay (NCI)
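Method: 48-hour compound exposure of cells in 96-well plates, five concentrations, linear interpolation of endpoints. GI50 = concentration required for 50% inhibition of growth. TGI marks complete inhibition of growth.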

Legend:
Test in all cases: DTP human tumour cell line panel, 48 h
[1] = system: OVCAR-8 ovarian
[2] = system: NCI-H522 lung
[3] = system: KM12 colon
[4] = system: RPMI-8226 leukemia
[5] = system: SK-MEL-2 melanoma
[6] = system: NCI-H460 lung
[7] = system: NCI-H226 lung
[8] = system: UACC-257 melanoma

| SMILES | TGI [1] | TGI [2] | TGI [3] | TGI [4] | TGI [5] | TGI [6] | TGI [7] | TGI [8] | GI50 [1] | GI50 [2] | GI50 [3] | GI50 [4] | GI50 [5] | GI50 [6] | GI50 [7] | GI50 [8] |
| --- | --- | --- | --- | --- | --- | --- | --- | --- | --- | --- | --- | --- | --- | --- | --- | --- |
| Nc1nc(C(=O)O)c(N=Nc2ccccc2)c(=O)[nH]1 | > 100 µM | > 100 µM | > 100 µM | > 100 µM | > 100 µM | > 100 µM | > 100 µM | > 100 µM |  |  |  |  |  |  |  |  |
| O=C1/C(=C/c2ccccc2O)N=C(c2ccccc2)N1c1cc(C(F)(F)F)ccc1Cl | > 100 µM | > 100 µM | > 100 µM | > 100 µM | > 100 µM | > 100 µM | > 100 µM | > 100 µM | 46.3 µM | 48.4 µM | 8.29 µM | > 100 µM | > 100 µM | > 100 µM | 33 µM | > 100 µM |
| Nc1nc2ccccc2c2c1S(=O)(=O)c1ccc(Cl)cc1C2=O | > 50 µM | 2.2 µM | 13.3 µM | 3.31 µM | > 50 µM | 6.63 µM | 17.3 µM | > 50 µM | 1.54 µM | 0.86 µM | 1.86 µM | 0.719 µM | 2.27 µM | 1.68 µM | 2.14 µM | 1.96 µM |
| COc1cc(/C=C/C(=O)O[C@H]2[C@H](O[C@@H]3O[C@@H](C)[C@H](O)[C@@H](O)[C@H]3O)[C@@H](O)[C@H](OCCc3ccc(O)c(O)c3)O[C@@H]2COC2OCC(O)(CO)C2O)ccc1O (stereo not given in full) |  | > 100 µM | > 100 µM | > 100 µM | > 100 µM | > 100 µM | > 100 µM | > 100 µM |  | > 100 µM | > 100 µM | > 100 µM | > 100 µM | > 100 µM | > 100 µM | > 100 µM |
| COc1ccc(COc2cc3oc(=O)c4cc(C(C)O)ccc4c3cc2OC)cc1 (stereo not given) | 52.2 µM | > 95.3 µM | > 100 µM | > 100 µM | 30 µM | > 100 µM | 49.8 µM | > 74.6 µM | 14.8 µM | 10.1 µM | 26.2 µM | > 28.8 µM | 7.69 µM | 12.6 µM | 12.3 µM | 19.7 µM |
| C=CCN(CC=C)C(=O)[C@H](CC)[C@@H]1CC[C@@H](C)[C@@H]([C@H](C)[C@@H](O)[C@@H](C)C(=O)[C@H](CC)C2O[C@]3(C=C[C@@H](O)[C@]4(CC[C@@](C)([C@H]5CC[C@](O)(CC)[C@H](C)O5)O4)O3)[C@H](C)C[C@@H]2C)O1 (stereo not given in full) | 76.4 µM | 5.68 µM | 3.65 µM | 5.43 µM | 7.47 µM | 4.35 µM | 4.92 µM | 8.25 µM | 3.48 µM | 2.08 µM | 1.87 µM | 1.62 µM | 2.62 µM | 1.97 µM | 1.86 µM | 2.35 µM |
| COc1ccc2c(c1)C(=O)c1c-2c(=O)n(CCCN(C)C)c2cc(OC)c(OC)cc12 | 23 µM | 21.6 µM | 19.8 µM | 42.3 µM | > 100 µM | 11.4 µM | > 100 µM | 33 µM | 4.6 µM | 4.69 µM | 5.73 µM | 8.14 µM | > 100 µM | 0.273 µM | 3.39 µM | 16.9 µM |
| Cc1ccc(Cl)cc1-n1c(C)nc2c(cnn2-c2ccnc3c(C(F)(F)F)cccc23)c1=O | > 100 µM | > 100 µM | > 100 µM | > 100 µM | > 100 µM | > 100 µM | > 100 µM | > 100 µM | > 100 µM | > 100 µM | > 100 µM | > 100 µM | > 100 µM | > 100 µM | > 100 µM | > 100 µM |
| O=S(=O)(NCCCNc1cc(-c2cn(-c3ccccc3)nc2-c2cccc(O)c2)ccn1)c1ccc(F)cc1 | 18.3 µM | 7.44 µM | 11.7 µM | 7.63 µM | 9.14 µM | 13.9 µM | 21.6 µM | 7.26 µM | 4.15 µM | 2.29 µM | 3.24 µM | 2.23 µM | 2.79 µM | 3.64 µM | 4.49 µM | 2.92 µM |
| COc1c(CC=C(C)C)c(O)c(C(CC(C)C)c2c(O)c(CC=C(C)C)c(O)c(C(C)=O)c2O)c(O)c1C(C)=O (stereo not given) | 10.3 µM | 1.48 µM | 5.05 µM | 4.17 µM | 1.94 µM | 10.2 µM | 10.6 µM | 5.11 µM |  |  |  |  |  |  |  |  |
| O=C1C(Nc2cccc(O)c2)=C(Sc2ccccc2)C(=O)N1Cc1ccccc1 | 26.9 µM | 23.9 µM | 28.8 µM | 4.07 µM | 26.7 µM | 29 µM | 22 µM |  | 11.9 µM | 5.75 µM | 14 µM | 1.36 µM | 11.4 µM | 11.3 µM | 2.55 µM |  |
| O=S(=O)(NCCCNc1nccc(-c2c(-c3ccc(F)cc3)nc3sccn23)n1)c1ccc(F)cc1 | > 100 µM | > 100 µM |  | 86 µM | > 100 µM | > 100 µM | 77.5 µM | > 100 µM | 4.56 µM | 10 µM |  | 5.29 µM | 23.2 µM | 5.62 µM | 4.76 µM | 21.9 µM |
